In patent US7601333B2, “Use of a tetrapeptide AcSDKP (SEQ ID No. 1) analog resistant to the angiotensin I converting enzyme for measuring glomerular filtration rate in a human or an animal and kit containing same” (Assistance Publique-Hopitaux de Paris, priority 2003, dated 2009):
Like-named read-outs stand apart in the source and are kept apart here. Residues, ends and D or L forms follow the SMILES beside them.

Key:
[1] = molecular target: N-terminal site of ACE (Homo sapiens, UniProt P12821); conditions: AcSDKP as substrate, in vitro; cited from earlier work
[2] = test system: plasma proteins; conditions: cited from earlier work
[3] = test system: human ACE; assay: In vitro degradation in the presence of human ACE; type: in vitro ADME; conditions: human converting enzyme (human ACE), peptide 100 nM, human converting enzyme 5 mU, pH 7.5, read-out: percentage of peptide assayed relative to the control; for remaining at 10 min, 100 nM: T10 min; for remaining at 0.5 h, 100 nM: T30 min; for remaining at 1 h, 100 nM: T60 min; for remaining at 2 h, 100 nM: T120 min; for remaining at 4 h, 100 nM: T240 min; for remaining at 24 h, 100 nM: T1440 min
Procedure: (§1) The peptides (100 nM) were incubated with ground rat lung material (at 0.1 mg/ml) or human converting enzyme (5 mU final concentration) in the presence or absence of captopril (10 μM final concentration) in 0.1 M Tris/HCl buffer+0.3 mM NaCl, pH=7.5. A control comprising only the peptides in the presence of 0.1 M Tris/HCl buffer+0.3 mM NaCl, pH=7.5, was carried out.
(§2) A methanol extraction was carried out in order to stop the reaction. At each time, the concentration of the nondegraded peptide was measured by enzyme immunoassay.
(§3) The results were expressed as percentage of peptide assayed relative to the control for each sample time.

[4] = molecular target: human ACE (Homo sapiens, UniProt P12821); assay: In vitro degradation in the presence of human ACE; type: in vitro ADME
Procedure: as §1, §2, §3

[5] = cited from earlier work
[6] = in vivo; conditions: male, Wistar, rat, iv
[7] = molecular target: T1, ACE present in mouse plasma (Mus musculus, UniProt P09470); conditions: cited from earlier work
T1 construct: host or cells: mouse plasma
T1 sequence (P09470 35-1237 limits assumed): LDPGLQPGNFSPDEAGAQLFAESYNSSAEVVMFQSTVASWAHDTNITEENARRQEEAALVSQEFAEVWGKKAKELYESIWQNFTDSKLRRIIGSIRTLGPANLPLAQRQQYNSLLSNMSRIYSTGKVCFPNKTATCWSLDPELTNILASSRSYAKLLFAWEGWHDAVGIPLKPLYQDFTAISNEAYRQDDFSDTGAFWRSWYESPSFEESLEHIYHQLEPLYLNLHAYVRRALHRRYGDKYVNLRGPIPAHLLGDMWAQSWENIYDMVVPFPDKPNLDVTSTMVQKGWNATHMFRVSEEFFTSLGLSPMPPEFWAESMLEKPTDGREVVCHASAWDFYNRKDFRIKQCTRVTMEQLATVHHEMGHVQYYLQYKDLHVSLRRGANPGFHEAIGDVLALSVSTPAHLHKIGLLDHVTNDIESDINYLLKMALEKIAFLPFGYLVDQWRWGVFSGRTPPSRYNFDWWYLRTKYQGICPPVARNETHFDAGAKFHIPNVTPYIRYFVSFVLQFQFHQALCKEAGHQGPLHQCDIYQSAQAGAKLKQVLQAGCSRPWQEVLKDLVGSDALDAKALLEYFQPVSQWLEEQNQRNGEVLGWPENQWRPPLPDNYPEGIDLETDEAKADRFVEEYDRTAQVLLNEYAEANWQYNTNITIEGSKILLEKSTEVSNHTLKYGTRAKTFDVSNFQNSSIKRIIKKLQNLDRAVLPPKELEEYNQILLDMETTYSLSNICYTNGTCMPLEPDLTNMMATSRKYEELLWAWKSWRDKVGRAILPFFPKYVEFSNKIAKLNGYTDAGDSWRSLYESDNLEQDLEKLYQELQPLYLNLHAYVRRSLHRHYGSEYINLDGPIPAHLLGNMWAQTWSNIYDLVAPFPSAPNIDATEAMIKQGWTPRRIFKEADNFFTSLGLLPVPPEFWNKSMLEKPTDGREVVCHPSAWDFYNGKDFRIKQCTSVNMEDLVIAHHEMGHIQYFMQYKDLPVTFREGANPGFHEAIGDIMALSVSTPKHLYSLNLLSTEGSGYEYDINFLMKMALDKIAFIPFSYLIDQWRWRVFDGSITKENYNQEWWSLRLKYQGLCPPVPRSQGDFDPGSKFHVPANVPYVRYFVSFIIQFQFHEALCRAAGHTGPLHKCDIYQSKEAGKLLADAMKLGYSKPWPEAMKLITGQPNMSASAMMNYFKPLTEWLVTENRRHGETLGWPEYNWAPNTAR

[8] = cited from earlier work; remark: listed apart in the source
[9] = with captopril 10 μM, + captopril 10 μM

Chain of human ACE (Homo sapiens, UniProt P12821) (P12821 30-1306): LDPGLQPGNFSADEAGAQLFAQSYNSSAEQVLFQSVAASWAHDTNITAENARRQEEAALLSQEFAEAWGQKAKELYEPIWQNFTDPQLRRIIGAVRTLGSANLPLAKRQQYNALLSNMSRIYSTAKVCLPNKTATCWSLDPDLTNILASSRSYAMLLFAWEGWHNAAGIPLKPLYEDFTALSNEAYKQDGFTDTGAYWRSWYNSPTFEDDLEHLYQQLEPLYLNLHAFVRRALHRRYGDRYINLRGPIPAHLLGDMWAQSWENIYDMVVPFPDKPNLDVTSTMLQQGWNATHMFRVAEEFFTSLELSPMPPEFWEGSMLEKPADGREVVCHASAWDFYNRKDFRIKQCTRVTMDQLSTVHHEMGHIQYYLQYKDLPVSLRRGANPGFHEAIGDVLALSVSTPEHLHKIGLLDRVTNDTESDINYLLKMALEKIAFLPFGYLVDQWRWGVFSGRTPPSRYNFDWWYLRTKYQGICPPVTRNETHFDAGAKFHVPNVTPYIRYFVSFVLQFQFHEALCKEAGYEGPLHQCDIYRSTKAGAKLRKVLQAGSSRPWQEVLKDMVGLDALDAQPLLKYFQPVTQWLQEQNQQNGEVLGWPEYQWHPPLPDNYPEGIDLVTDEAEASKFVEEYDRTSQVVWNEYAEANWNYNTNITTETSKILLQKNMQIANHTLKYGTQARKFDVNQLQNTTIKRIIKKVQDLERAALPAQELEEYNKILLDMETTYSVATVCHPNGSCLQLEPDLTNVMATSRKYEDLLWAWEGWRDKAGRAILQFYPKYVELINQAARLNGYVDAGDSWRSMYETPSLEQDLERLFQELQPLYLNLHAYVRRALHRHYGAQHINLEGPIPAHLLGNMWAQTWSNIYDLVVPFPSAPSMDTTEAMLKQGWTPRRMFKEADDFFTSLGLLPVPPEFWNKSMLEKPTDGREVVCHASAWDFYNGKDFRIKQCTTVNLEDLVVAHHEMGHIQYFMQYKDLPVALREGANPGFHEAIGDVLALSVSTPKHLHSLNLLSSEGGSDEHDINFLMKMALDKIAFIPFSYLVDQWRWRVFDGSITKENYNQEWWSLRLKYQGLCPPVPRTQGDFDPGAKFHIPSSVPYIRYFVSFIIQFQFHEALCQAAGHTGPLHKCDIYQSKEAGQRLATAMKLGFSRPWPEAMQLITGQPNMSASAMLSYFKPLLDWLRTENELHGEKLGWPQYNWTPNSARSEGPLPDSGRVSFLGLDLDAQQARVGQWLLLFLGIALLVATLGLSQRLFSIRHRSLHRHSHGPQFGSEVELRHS
Chain of N-terminal site of ACE (P12821 40-624 limits assumed): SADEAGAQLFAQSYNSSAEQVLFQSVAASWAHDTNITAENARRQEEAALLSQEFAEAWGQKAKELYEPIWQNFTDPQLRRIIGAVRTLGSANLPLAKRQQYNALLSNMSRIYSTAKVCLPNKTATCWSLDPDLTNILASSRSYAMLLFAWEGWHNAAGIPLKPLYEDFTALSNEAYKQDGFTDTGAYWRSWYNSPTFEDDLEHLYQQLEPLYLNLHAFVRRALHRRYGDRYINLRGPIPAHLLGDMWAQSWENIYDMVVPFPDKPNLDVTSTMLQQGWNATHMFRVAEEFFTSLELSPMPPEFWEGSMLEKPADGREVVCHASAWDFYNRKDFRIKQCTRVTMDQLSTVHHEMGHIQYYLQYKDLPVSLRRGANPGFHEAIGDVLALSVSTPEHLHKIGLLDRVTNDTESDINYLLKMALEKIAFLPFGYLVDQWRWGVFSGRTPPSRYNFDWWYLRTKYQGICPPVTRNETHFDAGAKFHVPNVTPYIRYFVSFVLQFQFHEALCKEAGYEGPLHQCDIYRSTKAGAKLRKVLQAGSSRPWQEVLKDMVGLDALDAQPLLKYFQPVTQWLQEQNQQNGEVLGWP

## CC(=O)N[C@@H](CO)C(=O)N[C@@H](CC(=O)O)C(=O)N[C@@H](CCCCN)C(=O)N1CCC[C@H]1C(=O)O [AcSDKP, N-acetyl-Ser-Asp-Lys-Pro] (Ac-SDKP-OH; C-terminus assumed)
[1]
  catalytic effectiveness of N-terminal site of ACE relative to C-terminal site: 50 times
[2]
  bound to the plasma proteins: < 1%
[3]; [9]
  remaining at 10 min, 100 nM: 90%
  remaining at 0.5 h, 100 nM: 100%
  remaining at 1 h, 100 nM: 85%
  remaining at 2 h, 100 nM: 85%
  remaining at 4 h, 100 nM: 100%
[3]; without captopril
  remaining at 10 min, 100 nM: 82%
  remaining at 0.5 h, 100 nM: 75%
  remaining at 1 h, 100 nM: 50%
  remaining at 2 h, 100 nM: 25%
  remaining at 4 h, 100 nM: 7%
[4]; in vitro
  degradation by ACE of human origin: degraded
[5]; between two 50 mg doses of captopril
  concentration in the plasma, minimum value: 2 nM
[5]; with an ACE inhibitor
  urinary clearance relative to endogenous creatinine clearance: 69±27%
[6]; plasma
  Vd: 0.353 L/kg
  level at time molar at 5 min: 5660 nM
  level at time molar at 10 min: 4980 nM
  level at time molar at 0.25 h: 4040 nM
  level at time molar at 1 h: 1000 nM
  level at time molar at 2 h: 218 nM
  level at time molar at 3 h: 60 nM
  level at time molar at 4 h: 22 nM
  level at time molar at 5 h: 11 nM
[6]; plasma, 1.2 mg/kg
  level at time molar at 5 min: 1820 nM
  level at time molar at 10 min: 514 nM
  level at time molar at 0.25 h: 194 nM
  level at time molar at 0.5 h: 38 nM
  level at time molar at 1 h: 8.2 nM
  level at time molar at 2 h: 2.2 nM
[6]; urine and plasma, 1 mg/kg
  CL renal: 11.2 mL/min/kg
[6]; urine, 1.2 mg/kg
  dose excreted: 10.1%

## CC(=O)N[C@@H](CO)C(=O)N[C@@H](CC(=O)O)C(=O)N[C@@H](CCCCN)C(=O)N1CCC[C@H]1C(N)=O [AcSDKP-NH2, N-acetyl-Ser-Asp-Lys-Pro-NH2] (Ac-SDKP-NH2)
[7]
  degradation by the ACE present in mouse plasma: not degraded
[3]; [9]
  remaining at 10 min, 100 nM: 90%
  remaining at 1 h, 100 nM: 78%
  remaining at 2 h, 100 nM: 95%
  remaining at 4 h, 100 nM: 104%
  remaining at 24 h, 100 nM: 117%
[3]; without captopril
  remaining at 10 min, 100 nM: 79%
  remaining at 0.5 h, 100 nM: 100%
  remaining at 1 h, 100 nM: 116%
  remaining at 2 h, 100 nM: 116%
  remaining at 4 h, 100 nM: 107%
  remaining at 24 h, 100 nM: 86%
[4]; in vitro
  degradation by ACE of human origin: does not appear to be degraded
[4]; in vitro, relative to control
  concentrations found: 100±25%
[4]; peptide 100 nM, human converting enzyme 5 mU, pH 7.5, T30 min, + captopril 10 μM
  percentage of peptide assayed relative to the control: 162%
[8]
  modification after 3 freezing-thawing cycles: no adverse modification
[6]; plasma
  AUC0-inf: 1490 ng·h/mL
  Vd: 0.284 L/kg
  clearance: 8.1 mL/min/kg
  half-life: 23.1 min
  level at 5 min: 3400 ng/mL
  level at 10 min: 2680 ng/mL
  level at 0.25 h: 1720 ng/mL
  level at 0.5 h: 1010 ng/mL
  level at 1 h: 450 ng/mL
  level at 2 h: 82 ng/mL
  level at 4 h: 3 ng/mL
[6]; plasma, 0.82 mg/kg
  AUC0-inf: 1230 ng·h/mL
  Vd: 0.338 L/kg
  half-life: 23.3 min
  level at 5 min: 2830 ng/mL
  level at 10 min: 2330 ng/mL
  level at 3 h: 16 ng/mL
  level at 4 h: 3 ng/mL
[6]; plasma, 1 mg/kg
  AUC0-inf: 1650 ng·h/mL
  Vd: 0.266 L/kg
  clearance: 8.1 mL/min/kg
